Test results: patent publication US6068845A, “Inhibition of abnormal accumulation of extra-cellular matrices” (Institute for Advanced Skin Research Inc., priority 1996, dated 2000)

What was measured:
[1] = tested on: Human newborn dermal fibroblasts (NB1RBG); assay: Inhibitory activity on the extracellular matrices production of fibroblasts with TGF-β, dye (Crystal Violet) staining method; assay type: cell-based; details: Fibroblast, 120 h
Description: (§1) Human newborn dermal fibroblasts (NB1RBG) (obtained from the Institute of Physical and Chemical Research) was subcultured in DMEM medium containing 10 % fetal bovine serum for provision to the test.
(§2) 2×10^4 NB1RBG cells per well were incubated in flat-bottomed 96-well microtiter plates containing 100 μl/well of each of DMEM media each containing 1 % fetal bovine serum and containing one of the test samples and TGF-β (5 ng/ml), at 37° C.-5 % CO2 for 5 days. A group not containing any test sample or TGF-β was also prepared, and incubation thereof was carried out at the same time with the test groups. After the completion of the incubation, the flat-bottomed 96-well microtiter plates on which the adhered cells and the extracellular matrices were adhered were stained with the following two methods for evaluation, respectively.
First, the culture supernatants were removed, the wells were washed with phosphate-buffered physiological saline, 100 μl/well of 0.05 % Crystal Violet-20 % ethanol staining solution was added, and the mixtures were left alone at room temperature for 10 minutes. Then, the plates were washed with flowing water and air dried, the remaining Crystal Violet was dissolved with 100 μl/well of methanol, and the absorbance at O.D. 570-690 was measured by a plate reader. The inhibition percentages of the production of extracellular matrices in an unstimulating state and in a TGF-β-stimulating state were calculated according to the following equations.
(§3) The inhibition percentage of the production of extracellular matrices in an unstimulating state (%) [formula] The inhibition percentage of the production of extracellular matrices in a TGF-β-stimulating state (%) [formula] A: The absorbance of a group containing only the solvent with which the test sample was prepared, and not containing TGF-β.
B: The absorbance of a group containing a test sample, but not containing TGF-β.
C: The absorbance of a group containing the solvent with which the test sample was prepared, and TGF-β.
D: The absorbance of a group containing a test sample and TGF-β.

[2] = tested on: Human newborn dermal fibroblasts (NB1RBG); assay: Inhibitory activity on the extracellular matrices production of fibroblasts with TGF-β, collagen staining method (anti-human type I collagen antibody; type I collagen sedimentation); assay type: cell-based; details: Fibroblast, 120 h
Text: Test samples used were Intin-koo extract (Preparation example 1), Forsythia suspensa VAHL. extract (Preparation example 2), Sophora flavescens AITON. extract (Preparation example 3), Rheum palmatum L. extract (Preparation example 4), Glycyrrhiza alabra L. var. glandulifera Regel et Herder extract (Preparation example 5), Goboosi extract with water (Preparation example 6), Goboosi extract with ethanol (Preparation example 7), zhimu extract (Preparation example 8), Dokkatu extract (Preparation example 9), mutong extract (Preparation example 10), soozyutu extract (Preparation example 11), o-phenanthroline (produced by Dojin Chemical Co.: special grade chemical), 2,2'-dipyridyl (produced by Aldrich Chemical Co.) and malotilate (extracted from Kantec tablet produced by Daiichi Pharmaceutical Co.).
as §1, §2
(b) Staining with anti-collagen antibody
First, the culture supernatants were removed, the wells were washed with phosphate-buffered physiological saline, and fixation was carried out with methanol under ice cooling for 10 minutes. Then, blocking was made with milk protein solution, Block Ace (produced by DAINIPPON PHARMACEUTICAL CO.), and rabbit anti-human type I collagen antibody (produced by CHEMICON CO.), biotin-labeled anti-rabbit immunoglobulin (produced by Amersham CO.) and avidin-biotin-labeled peroxidase complex (produced by Amersham CO.) were successively reacted to enzyme-label the sedimented type I collagen. 100 μl/well of 0.1 M citric acid phosphate buffer (pH 4.0) containing 2.5 mM 2,2'-azino-bis(3-ethylbenzothia-zoline-6-sulfate) (produced by SIGMA CO.) and 0.015 % H2 O2 was reacted therewith, and one hour later, absorbance at O.D. 415 was measured by a plate reader. The inhibition percetages of the type I collagen sedimentation in an unstimulating state and in a TGF-β-stimulating state were calculated according to the following equations.
as §3, with “matrices in TGF-β-stimulating state” for “matrices in a TGF-β-stimulating state”, “(%) [formula] E: The absorbance” for “(%) [formula] A: The absorbance”
F: The absorbance of a group containing a test sample, but not containing TGF-β.
G: The absorbance of a group containing the solvent with which the test sample was prepared, and TGF-β.
H: The absorbance of a group containing a test sample and TGF-β.

[3] = tested on: dermal fibrosis induced with bleomycin; assay: Inhibitory activity on the production of collagen in dermal fibrosis model induced with bleomycin; assay type: in vivo, Hos:hr-1 male hairless mice; details: bleomycin 10 mg/kg/day i.p. 10 days, day 30
Description: Hos:hr-1 male hairless mice (5 weeks old) were used.
10 mg/kg/day portions of bleomycin were intraperitoneally administered to the hairless mice for 10 successive days. 0.1 ml Portions of ethanol solutions or Vaseline ointments of the Sophora flavescens AITON. extraction, the Rheum palmatum L. extract, o-phenanthroline and malotilate were applied onto the back skins every day from the start of the test, respectively. 30 Days later from the start of the test, the back skins were excised. The amounts of collagen in the excised skins were assayed using hydroxyproline amount as an index.
The inhibition percentage of dermal fibrosis with bleomycin was caluculated according to the following equation.
Inhibition percentage of dermal fibrosis (%) [formula] J: Hydroxyproline amount in the untreated group K: Hydroxyproline amount in the group of bleomycin administration+application of the base alone
L: Hydroxyproline amount in the group of bleomycin administration+application of the drug

[4] = read-out: Inhibition percentage of the extracellular matrices production, dye staining method, TGF-β (+)
[5] = read-out: Inhibition percentage of the extracellular matrices production, dye staining method, TGF-β (-)
[6] = read-out: Inhibition percentage of the extracellular matrices production, collagen staining method, TGF-β (+)
[7] = read-out: Inhibition percentage of the extracellular matrices production, collagen staining method, TGF-β (-)
[8] = 1 × 10^-4 M, TGF-β 5 ng/ml, 5 days, read-out: Inhibition percentage of the extracellular matrices production, dye staining method, TGF-β (+)
[9] = 1 × 10^-4 M, unstimulated, 5 days, read-out: Inhibition percentage of the extracellular matrices production, dye staining method, TGF-β (-)
[10] = 1 × 10^-5 M, TGF-β 5 ng/ml, 5 days, read-out: Inhibition percentage of the extracellular matrices production, dye staining method, TGF-β (+)
[11] = 1 × 10^-5 M, unstimulated, 5 days, read-out: Inhibition percentage of the extracellular matrices production, dye staining method, TGF-β (-)
[12] = 1 × 10^-6 M, TGF-β 5 ng/ml, 5 days, read-out: Inhibition percentage of the extracellular matrices production, dye staining method, TGF-β (+)
[13] = 1 × 10^-6 M, unstimulated, 5 days, read-out: Inhibition percentage of the extracellular matrices production, dye staining method, TGF-β (-)
[14] = 1 × 10^-4 M, TGF-β 5 ng/ml, 5 days, read-out: Inhibition percentage of the extracellular matrices production, collagen staining method, TGF-β (+)
[15] = 1 × 10^-4 M, unstimulated, 5 days, read-out: Inhibition percentage of the extracellular matrices production, collagen staining method, TGF-β (-)
[16] = 1 × 10^-5 M, TGF-β 5 ng/ml, 5 days, read-out: Inhibition percentage of the extracellular matrices production, collagen staining method, TGF-β (+)
[17] = 1 × 10^-5 M, unstimulated, 5 days, read-out: Inhibition percentage of the extracellular matrices production, collagen staining method, TGF-β (-)
[18] = 1 × 10^-6 M, TGF-β 5 ng/ml, 5 days, read-out: Inhibition percentage of the extracellular matrices production, collagen staining method, TGF-β (+)
[19] = 1 × 10^-6 M, unstimulated, 5 days, read-out: Inhibition percentage of the extracellular matrices production, collagen staining method, TGF-β (-)

| Compound | inhibition at 100 µM [1, 8] [%] | inhibition at 100 µM [1, 9] [%] | inhibition at 10 µM [1, 10] [%] | inhibition at 10 µM [1, 11] [%] | inhibition at 1 µM [1, 12] [%] | inhibition at 1 µM [1, 13] [%] | inhibition at 100 µM [2, 14] [%] | inhibition at 100 µM [2, 15] [%] | inhibition at 10 µM [2, 16] [%] | inhibition at 10 µM [2, 17] [%] | inhibition at 1 µM [2, 18] [%] | inhibition at 1 µM [2, 19] [%] | Hydroxyproline amount per weight of dried skin ([3]; 5% applied to back skin daily) [µg/mg] | Inhibition percentage of dermal fibrosis ([3]; 5% applied to back skin daily) [%] | Hydroxyproline amount per weight of dried skin ([3]; 10% applied to back skin daily) [µg/mg] | Inhibition percentage of dermal fibrosis ([3]; 10% applied to back skin daily) [%] | also measured |
| --- | --- | --- | --- | --- | --- | --- | --- | --- | --- | --- | --- | --- | --- | --- | --- | --- | --- |
| c1ccc(-c2ccccn2)nc1 [2,2'-Dipyridyl, 2,2'-dipyridyl] |  |  |  |  |  |  |  |  |  |  |  |  |  |  |  |  | inhibition at 1 µM [1, 4]: 7%; inhibition at 10 µM [1, 4]: 7%; inhibition at 100 µM [1, 4]: 84%; inhibition at 1 µM [1, 5]: 5%; inhibition at 10 µM [1, 5]: 25%; inhibition at 100 µM [1, 5]: 44%; inhibition at 1 µM [2, 6]: 14%; inhibition at 10 µM [2, 6]: 30%; inhibition at 100 µM [2, 6]: 77%; inhibition at 1 µM [2, 7]: 10%; inhibition at 10 µM [2, 7]: 15%; inhibition at 100 µM [2, 7]: 18% |
| CC(C)OC(=O)C(C(=O)OC(C)C)=C1SC=CS1 [Malotilate, malotilate] | 92 | 20 | 53 | 23 | 18 | 21 | 98 | 7 | 68 | 6 | 20 | 9 | 1.66 ± 0.25 | 52.2 | 1.47 ± 0.19 | 80.6 |  |
| c1cnc2c(c1)ccc1cccnc12 [o-Phenanthroline, o-phenanthroline] | 95 | 0 | 86 | 0 | 1 | 7 | 100 | 20 | 90 | 16 | 27 | 11 | 1.72 ± 0.16 | 43.3 | 1.43 ± 0.10 | 86.6 |  |
